The source of these data is patent publication US6362369B1, “Phthalic acid diamide derivatives fluorine-containing aniline compounds as starting material, agricultural and horticultural insecticides, and a method for application of the insecticides” (Nihon Nohyaku Co., Ltd., priority 1997, dated 2002).

For the first test, the system named is diamondback moth (Plutella xylostella). Put plainly: Insecticidal effect on diamondback moth (Test Example 1). Conditions: diamondback moth; judged by the criterion of Test Example 1. The class given is in vivo. As to the method: Insecticidal effect on diamondback moth (Plutella xylostella) Adult diamondback moths were released and allowed to oviposit on a Chinese cabbage seedling. […] After air-drying, it was allowed to stand in a room thermostated at 25° C. Six days after the immersion, the hatched insects were counted. The mortality was calculated according to the following equation and the insecticidal effect was judged according to the criterion shown below. The test was carried out with triplicate groups of 10 insects. [table]
Take `Cc1cc(NC(=O)c2cccc(I)c2C(=O)NC(C)C)c(Br)cc1C(F)(C(F)(F)F)C(F)(F)F` [compound 1698]: the “Insecticidal effect (Test Example 1), judged from mortality” value is reported as “A (100)”. Still for that read-out and setting: the value for `Cc1cc(C(F)(F)C(F)(F)F)ccc1NC(=O)c1c(Cl)cccc1C(=O)N[C@@H](C)CO` [compound 1446] was “A (100)”; that for `Cc1cc(C(F)(F)C(F)(F)F)ccc1NC(=O)c1c(SC(F)(F)F)ccc(Cl)c1C(=O)NC(C)C` [compound 1802] was “A (100)”; that for `CCNC(=O)c1cccc(F)c1C(=O)Nc1ccc(C(F)(F)C(F)(F)F)cc1F` [compound 1511] was “A (100)”. Same read-out and setting: the value for `Cc1cc(C(F)(F)C(F)(F)F)ccc1NC(=O)c1c(I)cccc1C(=O)N[C@@H](C)CO` [compound 1518] was “A (100)”; that for `CC(C)NC(=O)c1cccc(F)c1C(=O)Nc1ccc(C(F)(F)C(F)(F)F)cc1F` [compound 1515] was “A (100)”.

The test is the same for the next values; noted with them: diamondback moth; judged by the mortality criterion of Test Example 1.
As to `Cc1c(NC(=O)c2c(Cl)cccc2C(=O)NC(C)C)cccc1OC(F)(F)C(F)Cl` (stereo not shown) [compound 240], the “Insecticidal effect, Test Example 1” value is “A (100)”.

In the case of `CNC(=O)c1c(C(=O)Nc2cc(Cl)ccc2C)cccc1[N+](=O)[O-]` [compound 3], the “Insecticidal effect, Test Example 1” value is given as “C (89-80)”.

As to `CC(=O)c1ccc(NC(=O)c2c(Cl)cccc2C(=O)NC(C)C)cc1` [compound 207], the “Insecticidal effect, Test Example 1” value is on record as “A (100)”. On the same count and under the same terms, the value for `CC(C)NC(=O)c1ccccc1C(=O)Nc1ccc(SC(F)(F)C(F)(F)Br)cc1` [compound 37] was “A (100)”. Same read-out and setting: the value for `Cc1cc(Cl)ccc1NC(=O)c1c(C(=O)NC(C)C)ccc(Br)c1Br` [compound 343] was “A (100)”.

Regarding `Cc1cc(Oc2c(F)c(F)c(F)c(F)c2F)ccc1NC(=O)c1ccccc1C(=O)NC(C)C` [compound 73], the “Insecticidal effect, Test Example 1” value was “A (100)”. Same read-out and setting: the value for `Cc1cc(OC(C)C)ccc1NC(=O)c1c(I)cccc1C(=O)NC(C)C` [compound 442] was “A (100)”; that for `CC(C)NC(=O)c1cccc(I)c1C(=O)Nc1ccc(SC(F)(F)C(F)F)cc1` [compound 422] was “A (100)”; that for `Cc1c(Cl)ccc(NC(=O)c2c(Br)cccc2C(=O)NC(C)C)c1C` [compound 308] was “A (100)”. On the same count and under the same terms, for `CC(C)NC(=O)c1cccc(Cl)c1C(=O)Nc1ccc2[nH]c(C(F)(F)F)nc2c1` [compound 256] the value was “A (100)”; for `CCCNC(=O)c1cccc(Cl)c1C(=O)Nc1ccc(OC(F)F)cc1C` [compound 16], “A (100)”; for `Cc1c(Cl)ccc(NC(=O)c2c(I)cccc2C(=O)NC(C)C)c1C` [compound 434], “A (100)”.

Staying with this test, now noted: diamondback moth; mortality judged by criterion of Test Example 1.
On to `Cc1cc(C(F)(F)C(F)(F)F)ccc1NC(=O)c1cccc(Cl)c1C(=O)N[C@@H](CO)c1ccccc1` [compound 1442], for which the “Insecticidal effect, Test Example 1” value was “A (100)”. Still for that read-out and setting: for `CC(C)NC(=O)c1c(I)cccc1C(=O)Nc1ccc2nc(C(F)(F)C(F)(F)F)oc2c1` [compound 1180] the value was “A (100)”; for `Cc1ccc(CNC(=O)c2cccc(Cl)c2C(=O)Nc2ccc(C(F)(F)C(F)(F)F)cc2C)cc1` [compound 1342], “A (100)”. Still for that read-out and setting: for `Cc1cc(C(F)(F)C(F)(F)F)ccc1NC(=O)c1ccccc1C(=O)NCC(O)Cc1ccccc1` (stereo not shown) [compound 1398] the value was “A (100)”; for `Cc1ccccc1CNC(=O)c1cccc(Cl)c1C(=O)Nc1ccc(C(F)(F)C(F)(F)F)cc1C` [compound 1338], “A (100)”; for `Cc1cc(C(F)(F)C(F)(F)F)ccc1NC(=O)c1c(I)cccc1C(=O)NCC(C)C` [compound 1006], “A (100)”. The same measure, in the same setting: the value for `COc1cccc(CNC(=O)c2c(Cl)cccc2C(=O)Nc2ccc(C(F)(F)C(F)(F)F)cc2C)c1` [compound 1345] was “A (100)”; that for `Cc1cc(C(F)(F)C(F)(F)F)ccc1NC(=O)c1cccc(Cl)c1C(=O)NCCOc1ccccc1Cl` [compound 1368] was “A (100)”. `COc1ccc(CNC(=O)c2cccc(Cl)c2C(=O)Nc2ccc(C(F)(F)C(F)(F)F)cc2C)cc1` [compound 1348]: the “Insecticidal effect, Test Example 1” value was “A (100)”. On the same count and under the same terms, the value for `Cc1cc(C(F)(F)C(F)(F)F)ccc1NC(=O)c1cccc(Cl)c1C(=O)NCCc1ccccc1Cl` [compound 1356] was “A (100)”.

Still in this test, the particulars now being: mortality judged according to the criterion shown in Test Example 1.
Regarding `CSc1ccc(NC(=O)c2cccc([N+](=O)[O-])c2C(=O)NC(C)C)c(C)c1C` [compound 720], the “Insecticidal effect on diamondback moth (Test Example 1), judged grade” value (“Insecticidal effect on diamondback moth” below) is “A (100)”.

With `CC(C)NC(=O)c1cccc(Cl)c1C(=O)Nc1ccc(C=C(Cl)Cl)cc1` [compound 916], the “Insecticidal effect on diamondback moth” value is recorded as “A (100)”. Consider `CC(C)NC(=O)c1cccc(F)c1C(=O)Nc1cc(Cl)c(OC(F)F)c(Cl)c1` [compound 560], for which the “Insecticidal effect on diamondback moth” value is “A (100)”. Take `CC(C)NC(=O)c1c(C(=O)Nc2ccc(F)cc2)cccc1[N+](=O)[O-]` [compound 594]: the “Insecticidal effect on diamondback moth” value is “A (100)”. The same measure, in the same setting: for `CC(C)NC(=O)c1c(C(=O)Nc2c(Cl)cc(C(F)(F)F)cc2Cl)cccc1[N+](=O)[O-]` [compound 662] the value was “A (100)”; for `CC(C)NC(=O)c1c(C(=O)Nc2ccc(F)cc2F)cccc1[N+](=O)[O-]` [compound 639], “A (100)”; for `CC(C)NC(=O)c1cccc(Cl)c1C(=O)Nc1ccc(C=C(Br)Br)cc1` [compound 914], “A (100)”. With `CSc1ccccc1NC(=O)c1cccc([N+](=O)[O-])c1C(=O)NC(C)C` [compound 622], the “Insecticidal effect on diamondback moth” value is given as “A (100)”. Consider `CC(C)NC(=O)c1c(F)cccc1C(=O)Nc1ccc(SCC(F)(F)F)cc1` [compound 478], for which the “Insecticidal effect on diamondback moth” value is given as “A (100)”.

For the molecule `Cc1ccc(Cl)cc1NC(=O)c1cc([N+](=O)[O-])ccc1C(=O)NC(C)C` [compound 738], the “Insecticidal effect on diamondback moth” value is “D (79-50)”. The same measure, in the same setting: the value for `CC(C)NC(=O)c1c(C(=O)Nc2cccc(C#N)c2)cccc1[N+](=O)[O-]` [compound 597] was “B (99-90)”; that for `CCc1cc(I)ccc1NC(=O)c1c(I)cccc1C(=O)NC(C)C` [compound 920] was “A (100)”.

Take `CC(C)NC(=O)c1c(C(=O)Nc2cccc(Br)c2)cccc1[N+](=O)[O-]` [compound 590]: the “Insecticidal effect on diamondback moth” value is listed as “A (100)”. On the same count and under the same terms, for `Cc1ccc(Cl)cc1NC(=O)c1cccc([N+](=O)[O-])c1C(=O)NC1CCC1` [compound 854] the value was “A (100)”.

In the case of `CC(C)NC(=O)c1c(C(=O)Nc2ccc(F)c(F)c2)cccc1[N+](=O)[O-]` [compound 642], the “Insecticidal effect on diamondback moth” value is listed as “A (100)”. In the case of `CC(C)NC(=O)c1c(C(=O)Nc2ccccc2C(F)(F)F)cccc1[N+](=O)[O-]` [compound 608], the “Insecticidal effect on diamondback moth” value was “A (100)”. On to `CC(C)NC(=O)c1cccc(F)c1C(=O)Nc1ccc(Oc2ccc(C(F)(F)F)cc2Cl)cc1F` [compound 902], for which the “Insecticidal effect on diamondback moth” value was “A (100)”. The same measure, in the same setting: the value for `COc1ccc(NC(=O)c2cccc([N+](=O)[O-])c2C(=O)NC(C)C)cc1` [compound 614] was “A (100)”; that for `Cc1cc(SC(C)C)ccc1NC(=O)c1c(I)cccc1C(=O)NC(C)C` [compound 462] was “A (100)”; that for `Cc1cc(Oc2c(F)c(F)c(F)c(F)c2F)ccc1NC(=O)c1c(I)cccc1C(=O)NC(C)C` [compound 459] was “A (100)”. On the same count and under the same terms, the value for `CCC(CC)NC(=O)c1c(C(=O)Nc2ccc(OC(F)F)cc2C)cccc1[N+](=O)[O-]` [compound 845] was “A (100)”; that for `Cc1cc(OC(F)F)ccc1NC(=O)c1cccc([N+](=O)[O-])c1C(=O)NC(C)C(C)C` (stereo not shown) [compound 846] was “A (100)”; that for `Cc1cc(Oc2cccc(C(F)(F)F)c2)ccc1NC(=O)c1c(I)cccc1C(=O)NC(C)C` [compound 458] was “A (100)”. Consider `C#CCNC(=O)c1c(C(=O)Nc2ccc(OC(F)F)cc2C)cccc1[N+](=O)[O-]` [compound 870], for which the “Insecticidal effect on diamondback moth” value is on record as “A (100)”. As to `Cc1ccc(NC(=O)c2cccc([N+](=O)[O-])c2C(=O)NC(C)C)cc1` [compound 601], the “Insecticidal effect on diamondback moth” value was “A (100)”. Consider `Cc1cc(C(F)(F)F)ccc1NC(=O)c1c(C(=O)NC(C)C)cccc1[N+](=O)[O-]` [compound 742], for which the “Insecticidal effect on diamondback moth” value is given as “A (100)”. On the same count and under the same terms, for `Cc1cc(Sc2ccc(Cl)cc2)ccc1NC(=O)c1c(I)cccc1C(=O)NC(C)C` [compound 463] the value was “A (100)”; for `CCc1ccc(F)cc1NC(=O)c1cccc([N+](=O)[O-])c1C(=O)NC(C)C` [compound 677], “A (100)”. Still for that read-out and setting: the value for `CC(C)N(C)C(=O)c1ccccc1C(=O)Nc1ccc(C(F)(F)F)cc1` [compound 824] was “A (100)”.

Take `Cc1cc(Cl)ccc1NC(=O)c1cccc(S(=O)(=O)C(C)C)c1C(=O)NC(C)C` [compound 796]: the “Insecticidal effect on diamondback moth” value is “A (100)”.
